From patent US20260207568A1, “COMPOSITIONS AND METHODS FOR IMPROVING NEUROLOGICAL DISEASES AND DISORDERS” (CuraSen Therapeutics, Inc., priority 2022, published 2026)
Entries after “also recorded” stand apart in the source; their conditions may differ.

Assays:
[1] = test system: healthy volunteers aged 55-75 years; test: CANTAB cognition battery, Cohort D2; format: in vivo, human; details: Compound 03-5 1, 3, 10 mg once daily, 2 h after 3 mg nadolol
Experimental: Data are presented as mean changes from the within-day pre-dose assessment.
(§1) In Cohort D2, 8 healthy volunteers aged 55-75 years were admitted on Day −1 for a 5-day confinement period at the research facility. […] Subjects remained in-residency until all study procedures are completed on Day 4. • ? Compound 03-5 dose administration. Compound 03-5 was administered as escalating doses on Day 1 (1 mg), Day 2 (3 mg) and Day 3 (10 mg). CANTAB was conducted twice in all subjects on the day prior to start of dosing (Day −1) to familiarize subjects with the platform, and prior to dosing and approximately 3 hours after Compound 03-5 administration on Days 1, 2, and 3.

healthy volunteers [2] = test: Peripheral effects of Compound 03-5 (heart rate, glucose, potassium, tachycardia, tremor, palpitations) with nadolol; format: in vivo, human
Experimental: Data are presented as individual observations for all available subjects.
(§2) On all dosing days, study drug(s) were administered orally after an overnight fast of at least 8 hours.
(§3) Routine measures of ECG, vital signs, safety labs, physical exams and plasma sample collections for analysis of drug pharmacokinetics (PK) were undertaken according to the Schedule of Events (Table 1).
as §1

healthy volunteers [3] = test: Heart rate by triplicate ECG, Compound 03-5 with or without nadolol; format: in vivo, human; details: 6 mg Compound 03-5 after pre-administration of 1 mg nadolol
Experimental: Heart rate was measured by triplicate ECG recordings. Data are presented as means changes from time-matched measures recorded on the day before the first dose of study drug (Day −1).
as §2, §3

healthy subjects [4] = test: Cerebral perfusion by ASL MRI after single doses of clenbuterol (Example 3); format: in vivo, human
Experimental: In a clinical study, healthy subjects were administered doses of clenbuterol ranging from 20 to 160 μg and ASL MRI was conducted prior to and after dosing with an objective to ascertain whether this neuroimaging method enables the detection of a clinically relevant CNS signal.
In a region of interest (ROI) analysis focusing on the hippocampus, which is well understood to be affected in neurodegenerative disorders, a single dose of 80 μg of clenbuterol causes a robust increase in perfusion (see FIG. 7). […] Our hypothesis is that by improving cerebral perfusion, particularly in areas of the brain that are relevant for symptoms that are commonly found in neurodegenerative diseases such as PD and AD, the administration of a β-AR agonist (such as a β-agent) will have a positive effect on clinically relevant symptoms such as memory and cognition.

healthy subjects [5] = test: Adaptive tracking test; format: in vivo, human; details: single dose 160 μg clenbuterol
Text: Adaptive tracking measures visuomotor coordination and vigilance. In this test, the subject uses a joystick to move a small dot so that it stays within a continuously moving circle on a computer screen (Boland 1984). During the test, the speed of the circle is adjusted in response to the subject's ability to keep the dot in the circle, ensuring that the test is adapted to the individual subject. […] The improvement shown by subjects is in the same range as that seen with subjects treated with the acetylcholinesterase inhibitor donepezil, which is in clinical use for the treatment of mild to moderate AD (Groeneveld 2016).

[6] = test system: healthy volunteers and subjects with MCI or PD; test: Safety and tolerability (TEAEs, heart rate, blood pressure, labs), Example 6; details: for mean increase in supine heart rate from baseline: no nadolol
Experimental: (§5) Safety and tolerability were evaluated by questioning for adverse events (AEs), triplicate 12-lead ECGs, laboratory safety tests on urine and blood with multiple chemistry panels including potassium, blood glucose levels, vital sign measurements, and physical examinations at regular time-points during the study.

subjects = test: Visual verbal learning test (VVLT); format: in vivo, human; details: for effect on the VVLT (learning and memory): crossover study, 3 agents plus placebo
Experimental: Subjects are presented 30 words on a screen, one at a time, for 1 second with a 1-second interval between words over a total of 1 minute. This is repeated in 3 trials. After each trial, subjects are asked to recall as many words as they can. […] Since this was a crossover study, everyone who completed Part A was dosed with the 3 agents plus placebo.

[7] = ASL MRI cerebral perfusion, CuraSen study CLIN-002; format: in vivo; details: CST-103 80 and 160 μg
Text: (§4) It was hypothesized that by improving cerebral perfusion, particularly in areas of the brain that are relevant for symptoms that are commonly found in PD and MCI, the administration of a β-AR agonist would have a positive effect on clinically relevant symptoms such as memory and cognition.

healthy volunteers [8] = test: Cerebral blood flow by ASL MRI in healthy volunteers (Example 6)
Experimental: In the 4 cohorts of healthy volunteers, study drug was administered as follows:
All subjects received single oral dose of 20 μg clenbuterol on Day 1, and a single oral dose of 40 μg clenbuterol on Day 8, with ASL MRI scans before and 3 hours after dosing on both days.
All subjects received a single oral dose of 80 μg clenbuterol on Day 1, with ASL MRI scans before, and 3 hours 1 day and 2 days after clenbuterol administration to evaluate the longevity of the ASL MRI signal
ASL MRI scans were conducted before and 3 hours after clenbuterol administration on Day 1 and Day 7.
ASL MRI scans were conducted before and 3 hours after clenbuterol administration on Day 2 and Day 9.
All scans were conducted using pseudo continuous ASL MRI. Only subjects with no contraindications to being in a strong magnetic field were evaluated by MRI. Participants were positioned comfortably and supine in the head coil to minimize any motion during the scan with proper back support, and support under the knees for comfort and to reduce motion in the scan, and the head was centered in the head coil and velcro straps or foam padding were used to reduce motion.
Imaging was performed on a GE Signa PET-MR 3T system.
For accurate quantitative measurements of brain structures a high-resolution T1-weighted, 3D volumetric sequences (e.g., MP-RAGE, IR-FSPGR) in the sagittal plane. Scan parameters of the pCASL sequence were: straight axial/transversal slices, labeling duration=1.8s, post-labeling delay=2.0 s, 15-20 cm slab thickness, pCASL average labeling gradient 1 mT/m, pCASL slice selective labelling gradient 10 mT/m, pASL TI1 (QUIPSS II Saturation Time) 800 ms, pASL labeling slab thickness 15-20 cm, 70 volumes, spatial resolution 3 mm in-plane/5 mm through-plane/gap 1 mm, 3D RARE stack-of-spiral or 3D GRASE 4-15 ms readouts, turbo-factor of 8 to 12; echo train of up to 300 ms, 2D EPI Single shot, minimum echo time, and duration 5 min.
Multiple ROIs were evaluated including whole brain, cortex, subcortical, thalamus, amygdala, hippocampus, and cerebellum which were chosen due to their relevance for cognition or alertness, and the periaqueductal grey for its relevance to motor control. Grey matter (GM) masking was applied for reporting of CBF in the GM of these ROIs.
Regional mean CBF values were extracted for each ROI and subsequently, the CBF for each region was compared before and after administration of clenbuterol.
Baseline/Predose versus Postdose change (%) for each subject and each region was calculated as 100*(Postdose_CBF−Baseline_CBF)/(Baseline_CBF). For each region, the cohort summary of CBF change (=mean relative displacement, MRD) was described by the group mean and standard deviation of the individual CBF changes.

[9] = Plasma pharmacokinetics of clenbuterol and nadolol (Example 6); details: human, in vivo
Text: (§6) Pharmacokinetic (PK) parameters were computed from the individual plasma drug concentrations using a non-compartmental approach.

subjects with MCI or PD = test: Cerebral blood flow by ASL MRI in subjects with MCI or PD (Example 6); format: in vivo, human; details: for CBF MRD in the hippocampus, repeat dose comparison: 80 μg clenbuterol without nadolol; for CBF mean (±SEM) MRD in hippocampus / CBF mean (±SEM) MRD in whole brain: Day 9, N=4
human subjects = test: Cerebral blood flow after a single dose of clenbuterol and/or nadolol, or pindolol (Example 1); format: in vivo
healthy subjects [10] = test: Cognitive performance, CuraSen study CLIN-003; format: in vivo, human; details: daily dose of 80 μg CST-103, healthy subjects, preliminary data
Text: as §4

[11] = test system: healthy volunteers and subjects with MCI or PD; details: in vivo
Experimental: as §5

clinical = details: human, in vivo; for Cmax: po
Text: as §6

[12] = Prior CuraSen studies of low-dose nadolol (CST-107) on peripheral β2-AR agonist effects; details: 1 mg nadolol (CST-107), co-administered with 80 μg CST-103
[13] = doses of 80 and 160 μg clenbuterol
[14] = 80 μg clenbuterol, absence of nadolol
[15] = 80 μg clenbuterol, presence of 1 mg nadolol

## CC(C)(C)NC[C@H](O)c1cccc(C#N)n1 [Compound 03-5, (S)-6-(2-(tert-butylamino)-1-hydroxyethyl)picolinonitrile]
[1]
  performance in the CANTAB cognition battery: improvements in performance in the CANTAB cognition battery were observed
Healthy volunteers [2]; Compound 03-5 monotherapy 0.3 mg-6 mg, Cohorts A1-A5
  hypokalemia (blood potassium levels): Dose-dependent increases in hypokalemia
Healthy volunteers [3]
  mean maximum increase in heart rate: 7 beats per minute

## CC(C)(C)NCC(O)c1cc(Cl)c(N)c(Cl)c1 (stereo not drawn) [clenbuterol]
Healthy subjects [4]; clenbuterol dose of 40 μg
  cerebral perfusion as measured by CBF: minimal increase
Healthy subjects [4]; clenbuterol doses below 30 μg
  cerebral perfusion as measured by CBF: do not produce significant cerebral perfusion increases
Healthy subjects [4]; [13]
  improvements in perfusion in brain areas relevant to neurodegenerative disorders: ~25%
  increases in cerebral perfusion in hippocampus and thalamus: 20% to 25
Healthy subjects [4]; single dose 80 μg clenbuterol, 6 healthy subjects aged 44-52
  increase in hippocampal perfusion, average: 25%
Healthy subjects [4]; single dose 160 μg clenbuterol, healthy subjects
  cerebral perfusion (ASL MRI): robust global increase in cerebral perfusion
Healthy subjects [5]
  performance in adaptive tracking (percent time dot kept within moving circle): improved adaptive tracking; also recorded: performance in adaptive tracking improves
Healthy subjects [5]; healthy subjects, preliminary data
  cognition as measured by adaptive tracking and word recall: improves cognition
[6]; 3 hours after 160 μg clenbuterol with pre-administration of 5 mg nadolol
  decrease in heart rate from baseline: 2.75 bpm
[6]; all subjects
  overall safety and tolerability: overall safe and well tolerated
[6]; all subjects enrolled
  severity of TEAEs: mild-to-moderate
[6]; clenbuterol in the absence or presence of nadolol
  effects on supine, sitting or standing blood pressure: no clinically meaningful effects
[6]; healthy volunteers
  subjects with TEAEs considered related to clenbuterol: 12/25
[6]; healthy volunteers, 3 hours after 20 μg clenbuterol
  mean increase in supine heart rate from baseline: 7.5 bpm
[6]; healthy volunteers, 3 hours after 40 μg clenbuterol
  mean increase in supine heart rate from baseline: 7.5 bpm
[6]; healthy volunteers, 3 hours after 80 μg clenbuterol
  mean increase in supine heart rate from baseline: 9.2-12.38 bpm
[6]; healthy volunteers, 3 hours after 160 μg clenbuterol
  mean increase in supine heart rate from baseline: 30.5 bpm
[6]; subjects with MCI or PD, 80 μg clenbuterol
  increase in heart rate: 10.67-14.65 bpm
[6]; subjects with neurodegenerative disease
  subjects with TEAEs considered related to clenbuterol: 6/8
subjects
  effect on the VVLT (learning and memory): positive effects on the VVLT
subjects; immediate and delayed recall, crossover study vs placebo
  VVLT improvement in correctly recalled words: 1.5 to 2 correctly recalled words
[7]
  cerebral perfusion (ASL MRI): robust global increase in cerebral perfusion
  increase in cerebral perfusion in the hippocampus: up to 28%
  increase in cerebral perfusion in the thalamus: up to 15%
Healthy volunteers [8]; 20 μg clenbuterol, no nadolol (first value of the list)
  CBF mean (±SEM) percent relative displacement (MRD) from baseline in the hippocampus: −1.7±1.3%
Healthy volunteers [8]; 160 μg clenbuterol about 2.5 h after 5 mg nadolol (Day 9)
  CBF mean SEM MRD from baseline: 14.0±6.5%
Healthy volunteers [8]; 160 μg clenbuterol in the absence of nadolol
  CBF mean (±SEM) percent relative displacement (MRD) from baseline in the hippocampus: 28.5±4.1%
Healthy volunteers [8]; 20, 40, 80 and 160 μg clenbuterol, absence of nadolol
  CBF by ASL MRI: dose-dependent increase in CBF
Healthy volunteers [8]; 3 hours after single dose of 80 μg clenbuterol
  CBF change from baseline: increases in CBF from baseline are evident
Healthy volunteers [8]; 24 hours after single dose of 80 μg clenbuterol
  CBF change from baseline: decreased but still evident
Healthy volunteers [8]; 48 hours after single dose of 80 μg clenbuterol
  CBF change from baseline: returned to baseline
[9]
  half-life: 12 to 31 h
Subjects with MCI or PD; Day 2, 4 subjects
  CBF MRD in the hippocampus, repeat dose comparison: 17.55±6.37%
Subjects with MCI or PD; Day 9, 4 subjects
  CBF MRD in the hippocampus, repeat dose comparison: 14.72±10.56%
Subjects with MCI or PD; [14]
  CBF mean (±SEM) MRD in hippocampus: 14.7±10.6%
  CBF mean (±SEM) MRD in whole brain: 4.8±12.6%
Subjects with MCI or PD; [15]
  CBF mean (±SEM) MRD in hippocampus: 12.5±5.7%
  CBF mean (±SEM) MRD in whole brain: 5.9±8.6%
Subjects with MCI or PD; 80 μg clenbuterol, with and without pre-administration of 1 mg nadolol
  CBF in multiple brain regions incl. hippocampus and thalamus: Significant increases in CBF
Human subjects; single dose clenbuterol 160 μg
  cerebral blood flow (CBF) relative to baseline: robust global increase in cerebral blood flow (CBF); also recorded: positive increase in cerebral blood flow
Human subjects; single dose clenbuterol 160 μg and nadolol 5 mg
  cerebral blood flow (CBF) relative to baseline: robust global increase in cerebral blood flow (CBF)
Human subjects; single dose clenbuterol 30 to 160 μg (nadolol 5 mg in some subjects), tracked 3 days
  cerebral blood flow (CBF) relative to baseline: robust global increase in cerebral blood flow (CBF)
Healthy subjects [10]
  cognitive performance: improves cognitive performance

## CC(C)(C)NCC(O)COc1cccc2c1CC(O)C(O)C2 (stereo not drawn) [nadolol]
[11]
  increase in heart rate after 80 μg clenbuterol: effectively blocked
clinical
  half-life: 7 to 13 h
clinical; 1 mg
  Cmax: 1 to 1.5 ng/mL
clinical; 4 mg
  Cmax: 2.8 to 4 ng/mL
[6]; all subjects enrolled
  TEAEs considered related to nadolol: No TEAEs
[6]; pre-administration of nadolol
  side effects of β2-agonist (increased heart rate, tremor, palpitations): mostly eliminated
Healthy volunteers [2]; Cohort D1, 1 mg nadolol pre-administered, Compound 03-5 orally up to 6 mg
  effect of nadolol on Compound 03-5 increase in heart rate and other peripheral effects (hyperglycemia, hypokalemia): substantially attenuated
Healthy volunteers [2]; Cohort D1, nadolol 1 mg up to 40 mg pre-administered, Compound 03-5 3-12 mg
  effect of nadolol on peripheral effects of Compound 03-5 (heart rate, glucose, potassium, tachycardia, tremor, palpitations): blocked the peripheral effects
Healthy volunteers [2]; Cohort D2, nadolol 3 mg pre-administered, Compound 03-5 1-10 mg
  effect of nadolol on peripheral effects of Compound 03-5 on heart rate, etc.: similarly blocked the peripheral effects
Healthy volunteers [2]; pre-administration of 1 mg nadolol, 6 mg Compound 03-5
  effects of Compound 03-5 on blood glucose and potassium, tachycardia, tremor and palpitations: Concomitant attenuation
Healthy volunteers [2]; subjects dosed with nadolol 1-40 mg, Cohorts D1 and D2
  hypokalemia caused by Compound 03-5: attenuation of hypokalemia
[12]
  attenuation of peripheral β2-AR agonist effects (heart rate, palpitations, tremors, potassium, glucose): could attenuate these peripheral effects; also recorded: sufficient to inhibit peripheral β2-AR agonist mediated effects

## CC(C)NCC(O)COc1cccc2[nH]ccc12 (stereo not drawn) [pindolol]
subjects
  effect on the VVLT (learning and memory): detrimental effect

## CC(C)(C)NCC(O)c1ccc(O)c(CO)c1 (stereo not drawn) [salbutamol]
subjects
  effect on the VVLT (learning and memory): positive effects on the VVLT
